Source: PubChem BioAssay (NCI)
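Compound exposure: 48 hours, 5 concentrations, 96-well plates. TGI denotes the concentration required for complete inhibition of growth.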

Assays:
Experiment in all cases: growth of human tumour cells (NCI), 48 h
CAKI-1 renal = tested on: CAKI-1 renal
HCC-2998 colon = tested on: HCC-2998 colon
HT29 colon = tested on: HT29 colon
IGROV1 ovarian = tested on: IGROV1 ovarian
MOLT-4 leukemia = tested on: MOLT-4 leukemia
NCI-H23 lung = tested on: NCI-H23 lung
OVCAR-5 ovarian = tested on: OVCAR-5 ovarian
SF-539 CNS = tested on: SF-539 CNS
SK-MEL-5 melanoma = tested on: SK-MEL-5 melanoma
SW-620 colon = tested on: SW-620 colon
U251 CNS = tested on: U251 CNS
OVCAR-3 ovarian = tested on: OVCAR-3 ovarian

Compound | TGI (CAKI-1 renal) [µM] | TGI (HCC-2998 colon) [µM] | TGI (HT29 colon) [µM] | TGI (IGROV1 ovarian) [µM] | TGI (MOLT-4 leukemia) [µM] | TGI (NCI-H23 lung) [µM] | TGI (OVCAR-5 ovarian) [µM] | TGI (SF-539 CNS) [µM] | TGI (SK-MEL-5 melanoma) [µM] | TGI (SW-620 colon) [µM] | TGI (U251 CNS) [µM] | TGI (OVCAR-3 ovarian) [µM]
C[C@@H]1CCC2[C@@H](C)[C@@H](OCCO[C@H]3OC4O[C@@]5(C)CCC6[C@H](C)CCC([C@H]3C)[C@@]46OO5)OC3O[C@@]4(C)CCC1[C@]32OO4 (stereo partly specified) | 2.07 | > 100 | > 100 | > 100 | > 100 | 68.9 | > 100 | > 100 | > 39.8 | > 100 | > 100 | 
S=c1[nH]n2c(COc3cccc(OCc4nnc5sc(=S)[nH]n45)c3)nnc2s1 | > 100 | > 100 | > 100 | > 100 | > 100 | > 100 | > 100 | > 100 |  | > 100 | > 100 | > 100
CN1CCN(CN2C(=O)C3C4C=CC(C3C2=O)C2C(=O)N(CN3CCN(C)CC3)C(=O)C42)CC1 (stereo unspecified) | > 100 | > 100 | 49.3 | > 100 | 97.1 | > 78.4 | > 100 | > 83.3 |  | 7.58 | > 100 | > 100
CC(C)C[C@H]1[C@@H](OCc2ccccc2)COS(=O)N1[C@H](C)c1ccccc1 (stereo partly specified) | 95.6 |  | 49.3 | > 100 | 51.3 | > 100 | > 100 |  | 23.3 | > 100 | 36.5 | 26
CC(C)(C)c1cc(C(CO)OCCOCCO)cc(C(C)(C)C)c1O (stereo unspecified) | > 100 |  | > 100 | > 100 |  | > 100 | > 100 | > 100 | > 100 | > 100 | > 100 | > 100
O=C(NCCCN(CCCCN(CCCNC(=O)C(F)(F)F)CCCc1ccccc1)CCCc1ccccc1)C(F)(F)F | 3.69 | 3.27 | 3.23 | 3.52 | 4.48 | 25.3 | 25.9 | 3.16 | 3.43 | 3.93 | 3.56 | 
COc1ccc(N2C(=O)CS(=O)(=O)C2c2cccc(Oc3ccccc3)c2)cc1 (stereo unspecified) | 19.3 |  | 50.9 |  | 21.9 | > 100 | > 100 | 15.1 | 16.7 | > 100 | 22.1 | > 100
C[C@@H]1C[C@](O)([C@@H](C)Cl)C(=O)O[C@@H]2CCN3CC=C(COC(=O)[C@]1(C)O)[C@H]23 | > 100 | > 100 | > 100 | > 100 |  | > 10 | > 100 | > 100 | > 100 | > 100 | > 100 | > 100
COc1ccc(-c2nc(SCC(=O)N/N=C/c3ccc(O)c(OC)c3)[nH]c2-c2ccc(OC)cc2)cc1 | > 100 | 32.3 | 46.1 |  |  | 49.2 | 63.7 | 36.5 | 31.7 | > 100 | 40.8 | 48
CCSc1[nH]c(Nc2nc(-c3ccccc3)n(-c3ccccc3)n2)c(C(N)=O)c1C(N)=O | > 10 | > 10 | > 10 | > 10 | > 10 | > 10 |  |  | > 10 | > 10 |  | 
CC(=C\c1ccccc1)/C=C(\C#N)C(N)=O | > 10 | > 10 | > 10 | > 10 |  |  | > 10 | > 10 | > 10 | > 10 | > 10 | > 10
O=C(NS(=O)(=O)OCC(Cl)(Cl)Cl)SCCC(F)(F)C(F)(F)C(F)(F)C(F)(F)C(F)(F)C(F)(F)F | 92.7 |  | 35.6 | > 100 | 80 | 40.6 | 34.6 | 34.5 |  | 38.3 | 51.8 | 48.3
CC(=O)Nc1ccc2cc(C)c(=O)[nH]c2n1 | > 100 |  | > 100 | > 100 | > 100 | > 100 | > 100 | > 100 | > 100 | > 100 | > 100 | 
COc1ccc(-c2c(C#N)c(O)n(NS(=O)(=O)c3ccc(C)cc3)c(=O)c2C#N)cc1 | > 100 | > 100 | > 100 | > 100 | 66.1 |  | > 100 | > 100 | > 100 | > 100 | > 100 | 
CCc1nc2ccc(N=NN(C)C)cc2[nH]1 | > 100 | > 100 | > 100 | > 100 | > 100 | > 100 | > 100 |  | > 100 | > 100 | > 100 | > 100
CC[C@]1(Cc2ccc(OC)c(OC)c2)[C@@H]2C[C@@H](C3OCCO3)ON2O[C@H](OC2CCCC2(c2ccccc2)c2ccccc2)[C@@H]1OC(C)=O (stereo partly specified) | 82.1 |  | 42.4 | 50.1 | 29 | 43.4 | 36 | > 100 | 37.7 | > 100 | > 100 | 25.4
CN(CCN(C)C(=S)NN)C(=S)NN | > 100 | > 100 | > 100 | > 100 | > 100 | > 100 | > 100 |  | > 100 | > 100 | > 100 | > 100
COc1ccc(C(=O)/C=C/c2ccncc2)cc1OC | 29.2 |  | 21.7 | 26.6 | 86.7 | 22.7 | 27.3 | 22.1 | 30.7 |  | 23.2 | 18.6
Cn1c(=O)c2c(no[n+]2[O-])c2ccccc21 | 32.4 | 27.3 | 37.2 | 31.4 | 44.4 | 34.8 |  | > 100 | 26 | 41.2 | 34.7 | 48.4
O=C1C[C@H]2[C@@H](O1)[C@@H](O)CN1C(=O)c3ccccc3[C@H]21 | > 100 | > 100 | > 100 | > 100 | > 100 | > 100 | > 100 | > 100 | > 100 | > 100 | > 100 | 

Compound | TGI (CAKI-1 renal) [µM] | TGI (HCC-2998 colon) [µM] | TGI (HT29 colon) [µM] | TGI (IGROV1 ovarian) [µM] | TGI (MOLT-4 leukemia) [µM] | TGI (NCI-H23 lung) [µM] | TGI (OVCAR-5 ovarian) [µM] | TGI (SF-539 CNS) [µM] | TGI (SK-MEL-5 melanoma) [µM] | TGI (SW-620 colon) [µM] | TGI (U251 CNS) [µM] | TGI (OVCAR-3 ovarian) [µM]
Oc1ccc(-c2nc(-c3ccc(F)cc3)c(-c3ccc4ccccc4n3)[nH]2)cc1 | 31.3 | 15.3 | 20.2 | 26.5 | 25.2 | 25.4 | 39.8 |  | 17.7 | 29.1 | 24.4 | 20.3
CC(=O)Nc1ccc(-c2nc3ccccc3s2)cc1 | 53.8 | > 100 | > 100 | > 100 | > 100 | > 100 |  | 67.1 | > 100 | > 100 | 92.6 | 
Cc1c(O)c(C)c2c(C)cn(C(=O)C(C)(C)C)c2c1C |  | 96.6 | 42.6 | 42.2 | 55.2 | 41.6 | 83 | 30 | 27.8 | 74.4 | 69 | > 100
COc1ccc(/C=N/n2c(-c3ccccc3)n[nH]c2=O)cc1 | > 100 | > 100 | > 100 |  | > 100 | > 100 | > 100 | > 100 |  | > 100 | > 100 | > 100
COc1ccc(CCN=C2OCc3ccccc32)cc1OC | > 100 | > 100 | > 100 | > 100 | > 100 | > 100 |  | 63.2 | > 100 | > 100 | > 100 | 
CC(C)(C)[Si](C)(C)OC1/C(=C/C#N)C(n2ccc(=O)[nH]c2=O)OC1CO (stereo unspecified) | > 100 |  | > 100 |  | > 100 | > 100 | > 100 | > 100 | > 100 | > 100 | > 100 | > 100
C#CCN(CC#C)C(=O)C(=O)c1c[nH]c2ccc(OC)cc12 |  | 31 | 25.3 | > 100 |  | 50.5 | 48 | 29.2 | 31.1 | 41.2 | 27.6 | 
CCOC(=O)c1ccc(C(=O)/C(C#N)=C2\CCCN2C)[nH]1 | > 100 | > 100 | > 100 | > 100 | > 100 | > 100 | > 100 |  | > 100 | > 100 | > 100 | > 100
CCOC(=O)c1ccc(NC(=O)O/N=C(/Cl)CCl)cc1 | > 100 |  | > 100 | > 100 | > 100 | > 100 | > 100 | > 100 | > 100 | > 100 | > 100 | > 100
Cc1ccsc1/C=N/Nc1ccc2ccccc2n1 | > 100 | > 100 | > 100 | 79.3 | > 100 | > 100 | > 100 |  | 13.2 | > 100 | > 100 | > 100
CCOC(=O)C1=C(N)Oc2ccc(Br)cc2C1C(C#N)C(=O)OCC (stereo unspecified) | > 100 | 32.7 |  | 36.5 | 90.9 | 47.3 | 66.3 | 40.3 | 42.6 | 43.2 | 33.8 | 39.7
CC(C)(C)NC(=O)N1N=C(c2ccccc2)C1c1ccccc1 (stereo unspecified) | 59.1 | > 100 | 32.2 | > 100 |  | > 100 | > 100 | 41.4 | 47 | > 100 | > 100 | 50.3
COC(=O)C1C=CN(N(C)C)C2=C1C(=O)c1c(O)cccc1C2=O (stereo unspecified) | 5.7 | 3.67 | 3.61 | 5.63 |  | 4.11 | 4.62 |  | 1.77 | 5.14 | 11.8 | 5.82
Cc1cn(CCCCCOC(=O)NC(CCCN=C(N)N)C(=O)O)c(=O)[nH]c1=O (stereo unspecified) | > 100 | > 100 | 60.1 | > 100 | > 100 | > 100 | > 100 | > 100 |  | > 100 | > 100 | > 100
O=C1/C(=C/c2ccccc2)NC(=S)N1CN1CCOCC1 |  |  | > 100 | > 100 | > 100 | > 100 | > 100 |  | > 100 | > 100 | > 100 | > 100
COC(=O)c1c(O)ccc2c1c1c(n2Cc2ccc(Cl)cc2Cl)C(=O)c2ccccc2C1 |  |  | > 100 | > 100 | > 100 | > 100 |  | > 100 | > 100 | > 100 | > 100 | > 100
O=P(O)(Cc1ccccc1)c1ccccc1-c1ccccc1 | > 100 | > 100 | > 100 | > 100 | > 100 | > 100 | > 100 | > 100 | > 100 | > 100 | > 100 | 
CC(=O)OC1O[C@@H](C(C)(C)O)CC[C@@H]1[C@H]1CC[C@@]2(C)C3=C(CC[C@]12C)[C@@]1(C)C[C@@H](OC(=O)CC(C)(O)CC(=O)O)[C@H](OC(C)=O)C(C)(C)C1CC3 (stereo partly specified) | 29.4 | 36.8 | 36.4 | 33.6 | 43.9 | 36.8 | 32.2 |  | 33.3 | 37.4 | 31.4 | 32.6
CCOP(=O)(O)C(C)(C)NC |  | > 100 | > 100 | > 100 | > 100 | > 100 | > 100 | > 100 | > 100 | > 100 | > 100 | > 100
O=C(NC(CO)Cc1ccc(Oc2cc(CC(CO)NC(=O)OCc3ccccc3)ccc2OC(=O)OCc2ccccc2)cc1)OCc1ccccc1 (stereo unspecified) | > 100 | 30.5 | > 100 | 46.6 | 22.4 | 36.1 | > 100 | 38.5 |  | > 100 |  | 45
